These results are taken from publication PMC3898417, “A peptide derived from TIMP-3 inhibits multiple angiogenic growth factor receptors and tumour growth and inflammatory arthritis in mice” (Angiogenesis, 2013).

The test system of series [1] is recombinant human VEGFR-2. The series is described as follows: Solid phase binding assay: competition with biotinylated-VEGF165. As to conditions: plate-coated rhVEGFR-2-Fc; biotinylated-VEGF165 2.4 nM, 1 h room temperature; Fig. 1. The procedure: Ninety six-well plates were coated with the extracellular domain of recombinant human VEGFR-2 fused to the Fc domain of human IgG1 (rhVEGFR-2, R&D Systems, UK) by overnight incubation followed by blocking in 5 % bovine serum albumin/PBS. […] After washing, the biotinylated-VEGF165 was detected with avidin-horse-radish peroxidase and OPD substrate (Sigma-Aldrich, UK) followed by spectrophotometry.

For series [2], the system named is HuDMEC. Nature of the series: Tube formation assay on Matrigel. The class given is cell-based, human. Here is the method: Serum-starved HuDMEC were seeded onto Matrigel™ matrix pre-coated 96 well plates (BD Biosciences, Cowley, Oxford, UK) at a density of 1 × 10^4 cells/well in 100 μl EBM-2 medium. Peptides were then added into each corresponding well and incubated for 1 h at 37 °C, followed by stimulated with growth factors, 0.5 nM VEGF165, 1 nM PDGF-BB or 1.6 nM bFGF, to induce tubule development. The tubules formed were examined 6 h after stimulation under a low power (40×) light microscope. Images were captured and analysed by measuring the average tubule length using ImageJ software (National Institutes of Health, USA).

The subject of series [3] is HuDMEC. The series is described as follows: VEGF165-induced cell migration (Boyden chamber). The class given is cell-based, human. As to conditions: 0.5 nM VEGF165, 4.5 h, up to 1 μM, n = 4. Here is the method: The ability of the p700 peptide to inhibit VEGF165-induced EC migration was determined using a multi-well Boyden chamber (Neuro Probe, Gaithersburg, USA). Briefly, serum-starved HuDMEC were treated with p700 for 1 h, washed and plated in the upper chamber in EBM-2 medium containing 1 % FCS on an 8 μm fibronectin pre-coated polycarbonate filter (Neuro Probe, Gaithersburg, USA). The cells were then left to migrate across the filter for 4.5 h at 37 °C with media containing 0.5 nM VEGF165 in the presence and absence of inhibitors in the lower chamber. After the incubation, non-migrating cells on the upper side of the membrane were scraped off and the migrated cells were stained with Hema Gurr® rapid staining kit (Merck Chemicals Ltd, Nottingham, UK). Migrated cells were counted using a light microscope at 160× magnification in three random fields per well of three separate wells.

The next series has as its system VEGFR-2. Nature of the series: Immunoblotting of VEGF165-induced VEGFR-2 phosphorylation. As to conditions: 1 μM, HuDMEC, western blot; n = 3. The class given is cell-based, human. Here is the method: (§1) Transfected HUVEC or HuDMEC pre-treated with 1 μM test peptides for 1 h, were stimulated with 0.5 nM of VEGF165 for 2, 5 or 10 min. Cells were lysed and phosphorylated proteins detected by western blotting using phospho-specific antibodies to either VEGFR-2, Erk1/2 or PI3K (New England BioLabs, UK). Band intensities were quantified using Bio-Rad Quantity One Analysis software and normalized using U, un-stimulated control, as 0 %; and VEGF165, positive control, as 100 % of protein phosphorylation.
Background: A western blot detects proteins with antibodies after separation by electrophoresis.

The subject of another series is PI3K. The series is described as follows: Immunoblotting of VEGF165-induced PI3K phosphorylation. The format is cell-based, human. As to conditions: 1 μM, HuDMEC, western blot; n = 3. Here is the method: as §1
Series [4] relates to HuDMEC. Nature of the series: Toxicity to HuDMEC by propidium iodide staining. The class given is cell-based, human. Conditions: data not shown.
In series [5] the test system is HuDMEC. Nature of the series: VEGF165-induced cell proliferation (BrdU). The class given is cell-based, human. As to conditions: peptide 1 h then 0.5 nM VEGF165 24 h, up to 1 μM, n = 4. Here is the method:
Human dermal microvascular endothelial cells were serum-starved followed by incubating with p700 peptide for 1 h and then 0.5 nM of VEGF165 for 24 h at 37 °C. Cell proliferation was determined using a BrdU cell proliferation assay kit (Merck Chemicals Ltd, Nottingham, UK).

The subject of a further series is VEGFR-1. Conditions: cited from earlier work. An excerpt: (§2) TIMP-3 appears to bind VEGFR-2 specifically, with no inhibition of the closely related VEGFR-1, FGFR1 or PDGFR-β receptors.
The test system of the next series is FGFR1. Conditions: cited from earlier work.
Description: as §2

The next series relates to PDGFR-β. Conditions: cited from earlier work.
Description: as §2

On to GLKLEVNKYQYLLTGR [p323], for which the “ability to inhibit the binding of VEGF165 to rhVEGFR-2” value in [1] was “not”.

Consider “fibrinopeptide A (ADSGEGDFLAEGGGVR; Fibrinopeptide A; UniProt P02671 20-35, looked up) [control peptide, 16 amino acid biologically inert control peptide, purchased from Bachem, reference compound]”, for which the “inhibition of VEGF165-induced HuDMEC tube formation” value in the series on HuDMEC [2] (1 μM peptide, 0.5 nM VEGF165, 6 h, n = 4) is “no significant effect”. The “inhibition of tubule formation in response to VEGF121” value with HuDMEC [2] (1 μM peptide, VEGF121, n = 4) is “no significant effect”. In the series on HuDMEC [3], the “maximum inhibition of VEGF165-induced migration” value is on record as “no significant effect”. Moreover, the “inhibition of VEGF165-induced VEGFR-2 phosphorylation” value with VEGFR-2 was “no significant effect”. The “inhibition of VEGF165-induced phosphorylation of PI3K” value in the series with PI3K was “no significant effect”. For the same molecule, the “concentration showing some toxicity to HuDMEC” value in the series with HuDMEC [4] was not below 10 µM. Further, in the series on HuDMEC [5], the “maximum inhibition of VEGF165-induced cell proliferation” value is “no significant effect”.

B1: full length TIMP-3: recombinant human tissue inhibitor of metalloproteinases-3, His-tagged, from High Five insect cells (protein)
chain: CTCSPSHPQDAFCNSDIVIRAKVVGKKLVKEGPFGTLVYTIKQMKMYRGFTKMPHVQYIHTEASESLCGLKLEVNKYQYLLTGRVYDGKMYTGLCNFVERWDQLTLSQRKGLNYRYHLGCNCKIKSCYYLPCFVTSKNECLWTDMLSNFGYPGYQSKHYACIRQKGGYCSWYRGWAPPDKSIINATDP
modifications: left off: His6, C-terminal, state not stated
In the case of B1, the “ability to inhibit the binding of VEGF165 to rhVEGFR-2” value in [1] is on record as “able to inhibit”. Further, the “inhibition of bFGF-induced tubule formation” value in the series on HuDMEC [2] (HuDMEC, 1.6 nM bFGF, 6 h, n = 3, Fig. 3b) is on record as “some inhibition”. For the same molecule, in the series on VEGFR-2, the “inhibition of VEGF165-induced VEGFR-2 phosphorylation” value was determined as 45%. Moreover, in the series on VEGFR-1, the “inhibition of VEGFR-1” value is “no inhibition”. Further, the “inhibition of FGFR1” value in the series with FGFR1 is on record as “no inhibition”. Further, in the series with PDGFR-β, the “inhibition of PDGFR-β” value is reported as “no inhibition”.
